Source: article PMC2150390, “High-dose cyclosporin with etoposide--toxicity and pharmacokinetic interaction in children with solid tumours” (British Journal of Cancer, 1998)

Assay: Etoposide pharmacokinetics with and without cyclosporin (plasma HPLC, non-compartmental analysis)
Assay type: in vivo, human
Conditions: for Clearance Cl+ / Half-life t1/2+ / Area under drug concentration curve AUC+: with cyclosporin; for Clearance Cl+ / Half-life t1/2+ / Area under drug concentration curve AUC+ / Clearance Cl- / Half-life t1/2- / Area under drug concentration curve AUC-: etoposide 150 mg m-2 over 1 hour; for Area under drug concentration curve AUC+ / Area under drug concentration curve AUC-: plasma HPLC, non-compartmental; for Median area under the concentration time curve for etoposide: etoposide 150 mg m-2 i.v.
[1] = Table 3, patient 1, cyclosporin schedule A
[2] = Table 3, patient 1, cyclosporin schedule A, without cyclosporin
[3] = Table 3, patient 2, cyclosporin schedule A
[4] = Table 3, patient 2, cyclosporin schedule A, without cyclosporin
[5] = Table 3, patient 4, cyclosporin schedule A
[6] = Table 3, patient 4, cyclosporin schedule A, without cyclosporin
[7] = Table 3, patient 5, cyclosporin schedule A
[8] = Table 3, patient 5, cyclosporin schedule A, without cyclosporin
[9] = Table 3, patient 6, cyclosporin schedule A
[10] = Table 3, patient 6, cyclosporin schedule A, without cyclosporin
[11] = Table 3, patient 7, cyclosporin schedule A
[12] = Table 3, patient 7, cyclosporin schedule A, without cyclosporin
[13] = Table 3, patient 8, cyclosporin schedule A
[14] = Table 3, patient 8, cyclosporin schedule A, without cyclosporin
[15] = Table 3, patient 9, cyclosporin schedule B
[16] = Table 3, patient 9, cyclosporin schedule B, without cyclosporin
[17] = Table 3, patient 10, cyclosporin schedule B
[18] = Table 3, patient 10, cyclosporin schedule B, without cyclosporin
[19] = Table 3, patient 11, cyclosporin schedule B
[20] = Table 3, patient 11, cyclosporin schedule B, without cyclosporin
[21] = Table 3, patient 13, cyclosporin schedule B
[22] = Table 3, patient 13, cyclosporin schedule B, without cyclosporin
[23] = Table 3, patient 14, cyclosporin schedule A
[24] = Table 3, patient 14, cyclosporin schedule A, without cyclosporin
[25] = Table 3, patient 15, cyclosporin schedule A
[26] = Table 3, patient 15, cyclosporin schedule A, without cyclosporin
[27] = Table 3, patient 17, cyclosporin schedule A
[28] = Table 3, patient 17, cyclosporin schedule A, without cyclosporin
[29] = Table 3, patient 18, cyclosporin schedule A
[30] = Table 3, patient 18, cyclosporin schedule A, without cyclosporin

COc1cc([C@@H]2c3cc4c(cc3[C@@H](O[C@@H]3O[C@@H]5CO[C@@H](C)O[C@H]5[C@H](O)[C@H]3O)[C@H]3COC(=O)[C@H]23)OCO4)cc(OC)c1O [etoposide]
Mean change in etoposide AUC with cyclosporin (15 patients, paired, P < 0.001): +89%
Mean change in etoposide clearance with cyclosporin (15 patients, paired, P < 0.001): -48%
Clearance Cl+ [1]: 15.7 mL/min
Half-life t1/2+ [1]: 5.08 h
Area under drug concentration curve AUC+ [1]: 14.6 mg·min/mL
Clearance Cl- [2]: 28.5 mL/min
Half-life t1/2- [2]: 3.27 h
Area under drug concentration curve AUC- [2]: 8.1 mg·min/mL
Clearance Cl+ [3]: 8.6 mL/min
Half-life t1/2+ [3]: 9.28 h
Area under drug concentration curve AUC+ [3]: 26.2 mg·min/mL
Clearance Cl- [4]: 22.0 mL/min
Half-life t1/2- [4]: 3.43 h
Area under drug concentration curve AUC- [4]: 10.2 mg·min/mL
Clearance Cl+ [5]: 18.6 mL/min
Half-life t1/2+ [5]: 5.75 h
Area under drug concentration curve AUC+ [5]: 16.9 mg·min/mL
Clearance Cl- [6]: 36.5 mL/min
Half-life t1/2- [6]: 5.08 h
Area under drug concentration curve AUC- [6]: 8.6 mg·min/mL
Clearance Cl+ [7]: 15.2 mL/min
Half-life t1/2+ [7]: 3.15 h
Area under drug concentration curve AUC+ [7]: 7.9 mg·min/mL
Clearance Cl- [8]: 30.2 mL/min
Half-life t1/2- [8]: 2 h
Area under drug concentration curve AUC- [8]: 3.8 mg·min/mL
Clearance Cl+ [9]: 11.9 mL/min
Half-life t1/2+ [9]: 3.82 h
Area under drug concentration curve AUC+ [9]: 8.8 mg·min/mL
Clearance Cl- [10]: 15.9 mL/min
Half-life t1/2- [10]: 2.75 h
Area under drug concentration curve AUC- [10]: 6.6 mg·min/mL
Clearance Cl+ [11]: 10.8 mL/min
Half-life t1/2+ [11]: 4.72 h
Area under drug concentration curve AUC+ [11]: 10.7 mg·min/mL
Clearance Cl- [12]: 21.9 mL/min
Half-life t1/2- [12]: 1.72 h
Area under drug concentration curve AUC- [12]: 5.3 mg·min/mL
Clearance Cl+ [13]: 9.9 mL/min
Half-life t1/2+ [13]: 6.9 h
Area under drug concentration curve AUC+ [13]: 10.1 mg·min/mL
Clearance Cl- [14]: 27.2 mL/min
Half-life t1/2- [14]: 2.05 h
Area under drug concentration curve AUC- [14]: 3.6 mg·min/mL
Clearance Cl+ [15]: 10.0 mL/min
Half-life t1/2+ [15]: 4.9 h
Area under drug concentration curve AUC+ [15]: 16.4 mg·min/mL
Clearance Cl- [16]: 25.8 mL/min
Half-life t1/2- [16]: 3.47 h
Area under drug concentration curve AUC- [16]: 6.4 mg·min/mL
Clearance Cl+ [17]: 11.6 mL/min
Half-life t1/2+ [17]: 6.93 h
Area under drug concentration curve AUC+ [17]: 14.2 mg·min/mL
Clearance Cl- [18]: 28.6 mL/min
Half-life t1/2- [18]: 1.37 h
Area under drug concentration curve AUC- [18]: 5.8 mg·min/mL
Clearance Cl+ [19]: 16.2 mL/min
Half-life t1/2+ [19]: 5.23 h
Area under drug concentration curve AUC+ [19]: 14.3 mg·min/mL
Clearance Cl- [20]: 32.5 mL/min
Half-life t1/2- [20]: 2.93 h
Area under drug concentration curve AUC- [20]: 7.4 mg·min/mL
Clearance Cl+ [21]: 7.8 mL/min
Half-life t1/2+ [21]: 4.93 h
Area under drug concentration curve AUC+ [21]: 13.1 mg·min/mL
Clearance Cl- [22]: 15.3 mL/min
Half-life t1/2- [22]: 2.47 h
Area under drug concentration curve AUC- [22]: 6.7 mg·min/mL
Clearance Cl+ [23]: 14.3 mL/min
Half-life t1/2+ [23]: 6.68 h
Area under drug concentration curve AUC+ [23]: 15.8 mg·min/mL
Clearance Cl- [24]: 29.3 mL/min
Half-life t1/2- [24]: 2.57 h
Area under drug concentration curve AUC- [24]: 7.7 mg·min/mL
Clearance Cl+ [25]: 22.6 mL/min
Half-life t1/2+ [25]: 6.78 h
Area under drug concentration curve AUC+ [25]: 12.9 mg·min/mL
Clearance Cl- [26]: 38.1 mL/min
Half-life t1/2- [26]: 4.3 h
Area under drug concentration curve AUC- [26]: 7.7 mg·min/mL
Clearance Cl+ [27]: 20.2 mL/min
Half-life t1/2+ [27]: 6.12 h
Area under drug concentration curve AUC+ [27]: 13.4 mg·min/mL
Clearance Cl- [28]: 29.1 mL/min
Half-life t1/2- [28]: 3.85 h
Area under drug concentration curve AUC- [28]: 9.3 mg·min/mL
Clearance Cl+ [29]: 10.1 mL/min
Half-life t1/2+ [29]: 11.4 h
Area under drug concentration curve AUC+ [29]: 21.5 mg·min/mL
Clearance Cl- [30]: 12.8 mL/min
Half-life t1/2- [30]: 10.3 h
Area under drug concentration curve AUC- [30]: 17.1 mg·min/mL
Percentage increase in etoposide AUC, mean (cyclosporin 3-h infusion): 106%
Percentage increase in etoposide AUC, mean (cyclosporin 24-h infusion): 89%
Median area under the concentration time curve for etoposide (with high-dose cyclosporin): 12.5 mg·min/mL
Median area under the concentration time curve for etoposide (without cyclosporin): 7.2 mg·min/mL
